pIC50: −log10 of the molar value. Activity calls are given as the source filed them. The calls are words filed in the database; no cut-off is given here.
Experiments:
[1] = biological target: Transient receptor potential cation channel subfamily A member 1 (Rattus norvegicus) (UniProt Q6RI86); assay: Antagonist activity at endogenous TRPA1 in rat DRG neurons assessed as blockade of bradykinin-induced CGRP release at 5 micromol/L; assay type: cell-based; conditions: DRG neuron, filed as antagonist, dose 5.0 µmol/L
[2] = biological target: Transient receptor potential cation channel subfamily M member 8 (Homo sapiens, UniProt Q7Z2W7); assay: Activation of human TRPM8 expressed in HEK293F cells upto 100 micromol/L; assay type: cell-based; conditions: dose <= 100.0 µmol/L
Rattus norvegicus [3] = assay: Antiallodynic activity in acetone-induced CCI Sprague-Dawley rat model assessed as attenuation of acetone induced cold allodynia at 62.1 mg/kg, po measured after 1 hrs relative to control; assay type: functional
[4] = Ratio of drug concentration in rat brain to plasma at 2 mg/kg, po; assay type: ADME, organism-based; conditions: read-out: BPR
Rattus norvegicus [5] = assay: Antiallodynic activity in spinal nerve ligation-induced neuropathic pain Sprague-Dawley rat model assessed as attenuation of mechanical allodynia at 6.2 to 62.1 mg/kg, po administered with compound for 1 hrs and measured 10 to 14 days after surgery; assay type: functional, organism-based; conditions: dose 6.2-62.1 mg/kg, time 241-337 hrs
[6] = Half-life in rat at 2 mg/kg, po; assay type: ADME, organism-based; conditions: in vivo
[7] = Cmax in rat at 2 mg/kg, po; assay type: ADME, organism-based; conditions: in vivo
Rattus norvegicus [8] = assay: Antiallodynic activity in CCI-induced neuropathic pain Sprague-Dawley rat model assessed as attenuation of mechanical allodynia at 6.2 to 62.1 mg/kg, po administered with compound for 1 hrs and measured 10 to 14 days after surgery; assay type: functional, organism-based; conditions: dose 6.2-62.1 mg/kg, time 241-337 hrs
[9] = Toxicity in Sprague-Dawley rat assessed as effect on mean arterial pressure; conditions: in vivo
Rattus norvegicus [10] = assay: Antiallodynic activity in CFA-induced mechanical allodynia Sprague-Dawley rat model assessed as attenuation of mechanical allodynia at 6.2 to 62.1 mg/kg, po administered with compound for 1 hrs and measured 48 hrs after CFA injection; assay type: functional, organism-based; conditions: dose 6.2-62.1 mg/kg, time 49.0 hrs
[11] = Drug concentration in rat at 6.2 mg/kg, po measured after 60 mins; assay type: ADME, organism-based; conditions: in vivo, read-out: Drug uptake
[12] = biological target: T1, Transient receptor potential cation channel subfamily V member 3 (Homo sapiens) (UniProt Q8NET8); assay: Antagonist activity at endogenous TRPV3 in human epithelial cells assessed as inhibition of 2APB-induced TRPV3 channel activation by FLIPR-based Ca2+ assay relative to control; conditions: Epithelial cell, concentration not given here
T1 sequence (whole entry): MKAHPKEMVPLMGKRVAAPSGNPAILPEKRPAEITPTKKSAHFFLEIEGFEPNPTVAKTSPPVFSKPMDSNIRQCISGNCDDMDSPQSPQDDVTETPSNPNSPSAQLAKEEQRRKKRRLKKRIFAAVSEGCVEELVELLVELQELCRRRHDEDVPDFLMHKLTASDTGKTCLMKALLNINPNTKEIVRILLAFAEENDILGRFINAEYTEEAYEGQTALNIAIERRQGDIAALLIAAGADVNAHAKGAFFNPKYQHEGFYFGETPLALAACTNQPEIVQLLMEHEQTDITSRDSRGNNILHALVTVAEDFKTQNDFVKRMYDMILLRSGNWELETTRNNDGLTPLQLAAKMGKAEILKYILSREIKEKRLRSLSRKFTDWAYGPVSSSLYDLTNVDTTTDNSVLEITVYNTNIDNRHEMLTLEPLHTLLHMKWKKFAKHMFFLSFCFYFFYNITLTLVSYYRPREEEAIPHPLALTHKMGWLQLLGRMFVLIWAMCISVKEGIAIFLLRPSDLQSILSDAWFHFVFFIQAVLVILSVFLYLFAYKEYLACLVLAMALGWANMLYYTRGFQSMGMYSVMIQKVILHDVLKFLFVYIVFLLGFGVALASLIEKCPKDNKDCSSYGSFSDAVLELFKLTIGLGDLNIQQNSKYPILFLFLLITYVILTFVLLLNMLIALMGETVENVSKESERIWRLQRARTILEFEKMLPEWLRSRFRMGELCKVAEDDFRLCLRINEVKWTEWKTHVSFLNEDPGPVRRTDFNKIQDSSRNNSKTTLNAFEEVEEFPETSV

[13] = Toxicity in CD1 mouse assessed as effect on total forepaw shivering response at 5 degreeC at 62.1 mg/kg, po measured after 4 mins by noxious cold plate assay; assay type: organism-based; conditions: in vivo
[14] = Toxicity in Sprague-Dawley rat assessed as effect on tail withdrawal latency to hot water immersion at 55 degreeC at 62.1 mg/kg, po by tail immersion test; assay type: organism-based; conditions: in vivo
[15] = Chemical reactivity of compound to 13C-labelled La antigen by ALARM NMR spectroscopic analysis; assay type: physicochemical
[16] = biological target: Transient receptor potential cation channel subfamily V member 4 (Homo sapiens, UniProt Q9HBA0); assay: Antagonist activity at human TRPV4 expressed in HEK293F cells assessed as inhibition of mOsmo-induced increase in intracellular Ca2+ level by FLIPR-based Ca2+ assay; assay type: cell-based
[17] = biological target: T2, Transient receptor potential cation channel subfamily V member 3 (Homo sapiens, UniProt Q8NET8); assay: Antagonist activity at endogenous TRPV3 in human epithelial cells assessed as inhibition of 2APB-induced increase in intracellular Ca2+ level by FLIPR-based Ca2+ assay; assay type: cell-based, Epithelial cell
T2 sequence (Q8NET8 whole entry): T1 sequence (whole entry)

[18] = Chemical reactivity of compound to La antigen incubated overnight by LC-MS analysis; assay type: physicochemical
[19] = biological target: Transient receptor potential cation channel subfamily A member 1 (Rattus norvegicus) (UniProt Q6RI86); assay: Antagonist activity at endogenous TRPA1 in rat DRG neurons assessed as blockade of capsaicin-induced CGRP release at 50 micromol/L; assay type: cell-based; conditions: DRG neuron, dose 50.0 µmol/L
[20] = biological target: Sodium-dependent dopamine transporter (Homo sapiens) (UniProt Q01959); assay: Inhibition of dopamine transporter (unknown origin) at 10 micromol/L by radioligand binding assay; conditions: dose 10.0 µmol/L
[21] = biological target: Transient receptor potential cation channel subfamily A member 1 (Rattus norvegicus, UniProt Q6RI86); assay: Antagonist activity at GFP-tagged rat TRPA1 transfected in HEK293F cells assessed as reduction in AITC-induced inward current at -60 mV holding potential by electrophysiological recordings; assay type: cell-based
[22] = Aqueous solubility of compound; assay type: physicochemical; conditions: buffer
Rattus norvegicus [23] = assay: Analgesic activity in MIA-induced osteoarthritic pain Sprague-Dawley rat model assessed as reversal of MIA-induced hind limb grip force deficit preadministered with MIA for 3 weeks followed by oral administration of compound for 1 hrs; assay type: functional; conditions: dose 6.2-62.1 mg/kg
[24] = biological target: T3, Transient receptor potential cation channel subfamily V member 1 (Homo sapiens, UniProt Q8NER1); assay: Antagonist activity at human TRPV1 expressed in HEK293F cells assessed as inhibition of capsaicin-induced increase in intracellular Ca2+ level by FLIPR-based Ca2+ assay; assay type: cell-based
[25] = biological target: T3, Transient receptor potential cation channel subfamily V member 1; assay: Activation of human TRPV1 expressed in HEK293F cells upto 100 micromol/L; assay type: cell-based; conditions: dose <= 100.0 µmol/L
[26] = Effect on locomotory activity in Sprague-Dawley rat model of mustard oil-induced nocifensive response at 6.2 to 62.1 mg/kg, po administered for 1 hrs; assay type: toxicity, organism-based; conditions: in vivo, dose 6.2-62.1 mg/kg
[27] = Unbound drug concentration in rat at 62.1 mg/kg, po measured after 60 mins; assay type: ADME, organism-based; conditions: in vivo, 1 h

Transient receptor potential cation channel subfamily A member 1 (Rattus norvegicus), sequence (Q6RI86 whole entry): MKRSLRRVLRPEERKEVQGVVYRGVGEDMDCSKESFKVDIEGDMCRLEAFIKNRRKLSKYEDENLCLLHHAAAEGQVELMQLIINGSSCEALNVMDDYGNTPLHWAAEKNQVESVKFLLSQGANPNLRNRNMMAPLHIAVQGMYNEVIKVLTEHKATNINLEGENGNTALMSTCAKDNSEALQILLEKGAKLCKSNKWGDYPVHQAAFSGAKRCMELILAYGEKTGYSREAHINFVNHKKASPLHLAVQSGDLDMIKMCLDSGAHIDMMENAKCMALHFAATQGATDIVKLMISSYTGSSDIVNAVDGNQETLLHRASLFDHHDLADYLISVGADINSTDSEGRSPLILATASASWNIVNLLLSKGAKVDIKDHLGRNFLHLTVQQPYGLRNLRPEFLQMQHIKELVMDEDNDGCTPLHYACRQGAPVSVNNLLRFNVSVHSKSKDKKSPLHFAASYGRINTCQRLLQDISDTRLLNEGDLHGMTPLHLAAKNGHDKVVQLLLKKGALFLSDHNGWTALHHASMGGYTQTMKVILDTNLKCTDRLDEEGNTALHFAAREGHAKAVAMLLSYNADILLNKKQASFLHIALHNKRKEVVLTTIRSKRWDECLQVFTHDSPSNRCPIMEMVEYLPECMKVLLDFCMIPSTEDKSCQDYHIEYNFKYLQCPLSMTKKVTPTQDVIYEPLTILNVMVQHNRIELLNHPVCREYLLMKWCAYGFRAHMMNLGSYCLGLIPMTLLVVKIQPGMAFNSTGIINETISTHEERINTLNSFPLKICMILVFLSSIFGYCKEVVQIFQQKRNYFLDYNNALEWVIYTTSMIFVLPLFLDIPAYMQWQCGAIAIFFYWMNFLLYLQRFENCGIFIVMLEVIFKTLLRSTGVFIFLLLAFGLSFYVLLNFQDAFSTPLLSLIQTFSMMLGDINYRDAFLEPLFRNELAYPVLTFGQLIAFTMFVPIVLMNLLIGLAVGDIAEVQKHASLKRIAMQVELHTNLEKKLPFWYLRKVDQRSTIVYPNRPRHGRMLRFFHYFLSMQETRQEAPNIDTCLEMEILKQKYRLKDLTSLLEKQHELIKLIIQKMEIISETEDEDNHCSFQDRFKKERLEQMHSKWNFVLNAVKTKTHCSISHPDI
T3 sequence (Q8NER1 whole entry): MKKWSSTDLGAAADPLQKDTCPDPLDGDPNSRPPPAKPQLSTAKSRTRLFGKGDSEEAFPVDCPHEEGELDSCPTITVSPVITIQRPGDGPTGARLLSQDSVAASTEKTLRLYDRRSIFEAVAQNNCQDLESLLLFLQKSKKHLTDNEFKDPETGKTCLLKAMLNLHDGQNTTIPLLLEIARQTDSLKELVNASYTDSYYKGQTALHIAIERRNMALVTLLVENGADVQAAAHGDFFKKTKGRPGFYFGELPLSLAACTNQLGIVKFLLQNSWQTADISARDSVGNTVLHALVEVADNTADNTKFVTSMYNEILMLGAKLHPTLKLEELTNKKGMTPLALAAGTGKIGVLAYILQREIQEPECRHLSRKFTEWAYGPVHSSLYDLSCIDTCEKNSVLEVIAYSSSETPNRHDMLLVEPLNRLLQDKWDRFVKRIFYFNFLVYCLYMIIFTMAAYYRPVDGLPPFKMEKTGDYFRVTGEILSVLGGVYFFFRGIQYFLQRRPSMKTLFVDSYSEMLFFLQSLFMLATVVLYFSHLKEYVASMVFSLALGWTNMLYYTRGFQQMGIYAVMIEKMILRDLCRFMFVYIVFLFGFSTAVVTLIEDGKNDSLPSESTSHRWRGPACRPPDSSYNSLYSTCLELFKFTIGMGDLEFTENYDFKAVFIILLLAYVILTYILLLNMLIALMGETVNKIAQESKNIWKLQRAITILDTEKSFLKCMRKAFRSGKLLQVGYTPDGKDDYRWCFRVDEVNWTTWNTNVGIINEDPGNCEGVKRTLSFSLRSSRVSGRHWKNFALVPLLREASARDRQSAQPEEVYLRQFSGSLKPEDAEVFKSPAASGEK
Sodium-dependent dopamine transporter (Homo sapiens), sequence (Q01959 whole entry): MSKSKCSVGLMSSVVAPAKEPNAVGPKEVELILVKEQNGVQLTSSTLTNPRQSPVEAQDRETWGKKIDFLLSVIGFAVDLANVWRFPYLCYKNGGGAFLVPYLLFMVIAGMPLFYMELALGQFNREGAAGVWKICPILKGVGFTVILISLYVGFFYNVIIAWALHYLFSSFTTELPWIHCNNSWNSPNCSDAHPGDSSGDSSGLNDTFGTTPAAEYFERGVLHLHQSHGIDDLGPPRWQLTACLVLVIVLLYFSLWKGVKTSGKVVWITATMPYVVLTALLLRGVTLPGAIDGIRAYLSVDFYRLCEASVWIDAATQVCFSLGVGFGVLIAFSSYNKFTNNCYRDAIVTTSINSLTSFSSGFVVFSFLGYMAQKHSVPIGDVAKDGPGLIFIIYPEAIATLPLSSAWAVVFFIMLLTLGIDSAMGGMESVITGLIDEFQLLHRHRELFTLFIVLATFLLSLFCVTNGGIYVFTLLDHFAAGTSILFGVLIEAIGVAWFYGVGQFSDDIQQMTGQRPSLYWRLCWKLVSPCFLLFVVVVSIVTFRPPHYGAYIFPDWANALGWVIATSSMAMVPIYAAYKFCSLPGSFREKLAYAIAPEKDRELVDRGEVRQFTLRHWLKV
Transient receptor potential cation channel subfamily A member 1, sequence (Q6RI86 whole entry): as the sequence (Q6RI86 whole entry) above
Transient receptor potential cation channel subfamily M member 8, sequence (Q7Z2W7 whole entry, looked up): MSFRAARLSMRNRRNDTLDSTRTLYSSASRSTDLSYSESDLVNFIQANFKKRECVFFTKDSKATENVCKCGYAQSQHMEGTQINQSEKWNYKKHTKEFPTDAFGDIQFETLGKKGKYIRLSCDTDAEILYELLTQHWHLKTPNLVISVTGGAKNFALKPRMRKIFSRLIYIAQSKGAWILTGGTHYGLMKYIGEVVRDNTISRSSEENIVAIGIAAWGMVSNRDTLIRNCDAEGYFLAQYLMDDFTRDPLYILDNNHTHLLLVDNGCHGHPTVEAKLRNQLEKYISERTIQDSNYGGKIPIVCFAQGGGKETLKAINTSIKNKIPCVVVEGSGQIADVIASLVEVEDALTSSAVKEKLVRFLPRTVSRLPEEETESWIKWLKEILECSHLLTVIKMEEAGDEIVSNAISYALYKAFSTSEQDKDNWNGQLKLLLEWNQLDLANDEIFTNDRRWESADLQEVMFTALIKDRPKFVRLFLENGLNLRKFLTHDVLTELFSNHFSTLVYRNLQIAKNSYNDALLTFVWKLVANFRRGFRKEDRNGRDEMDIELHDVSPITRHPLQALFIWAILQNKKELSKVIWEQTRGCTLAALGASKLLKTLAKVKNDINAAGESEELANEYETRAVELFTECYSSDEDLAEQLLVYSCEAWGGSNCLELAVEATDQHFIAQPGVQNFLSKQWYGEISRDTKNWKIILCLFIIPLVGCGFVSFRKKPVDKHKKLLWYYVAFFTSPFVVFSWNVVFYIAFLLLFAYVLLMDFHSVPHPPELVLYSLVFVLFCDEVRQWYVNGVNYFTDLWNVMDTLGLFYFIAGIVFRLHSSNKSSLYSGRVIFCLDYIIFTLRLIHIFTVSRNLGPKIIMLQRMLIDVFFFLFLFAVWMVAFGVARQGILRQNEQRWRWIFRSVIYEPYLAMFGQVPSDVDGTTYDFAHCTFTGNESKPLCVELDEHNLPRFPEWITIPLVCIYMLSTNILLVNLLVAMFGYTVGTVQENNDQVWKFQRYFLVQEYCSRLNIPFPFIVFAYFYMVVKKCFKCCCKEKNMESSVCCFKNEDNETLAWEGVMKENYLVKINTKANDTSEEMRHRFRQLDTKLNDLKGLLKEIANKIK
Transient receptor potential cation channel subfamily V member 4, sequence (Q9HBA0 whole entry): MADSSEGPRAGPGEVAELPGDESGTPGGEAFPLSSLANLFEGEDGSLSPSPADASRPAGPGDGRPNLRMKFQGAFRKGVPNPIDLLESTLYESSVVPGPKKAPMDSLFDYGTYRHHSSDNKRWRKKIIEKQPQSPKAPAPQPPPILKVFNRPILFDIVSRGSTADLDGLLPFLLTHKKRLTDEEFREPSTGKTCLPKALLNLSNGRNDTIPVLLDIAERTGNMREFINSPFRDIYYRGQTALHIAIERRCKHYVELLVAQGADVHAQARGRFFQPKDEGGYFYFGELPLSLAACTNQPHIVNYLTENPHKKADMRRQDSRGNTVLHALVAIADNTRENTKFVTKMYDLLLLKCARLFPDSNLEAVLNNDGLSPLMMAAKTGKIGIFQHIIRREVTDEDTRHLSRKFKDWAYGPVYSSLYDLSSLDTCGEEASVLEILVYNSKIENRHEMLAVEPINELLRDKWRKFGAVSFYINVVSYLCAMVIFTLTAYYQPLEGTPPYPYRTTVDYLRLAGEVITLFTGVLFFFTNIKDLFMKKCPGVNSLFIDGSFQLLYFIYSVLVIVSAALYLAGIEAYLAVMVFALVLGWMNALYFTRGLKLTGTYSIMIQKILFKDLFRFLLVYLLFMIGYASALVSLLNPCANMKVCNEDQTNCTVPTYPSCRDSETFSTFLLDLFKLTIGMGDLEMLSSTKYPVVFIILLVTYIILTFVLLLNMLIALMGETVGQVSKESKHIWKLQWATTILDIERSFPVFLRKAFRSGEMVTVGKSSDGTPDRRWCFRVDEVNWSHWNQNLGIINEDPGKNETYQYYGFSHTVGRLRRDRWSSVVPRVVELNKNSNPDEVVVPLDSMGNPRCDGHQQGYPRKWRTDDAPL

**Q.** Which Activity [1] does the source give for CCC(=N\O)/C(C)=C/c1ccc(F)cc1 [A-079] here?
**A.** Active

**Q.** What about the Activity [2] of the same molecule?
**A.** inactive

**Q.** What about the Activity (Rattus norvegicus [3]) of the same molecule?
**A.** 46.4%

**Q.** And the Kp [4]?
**A.** 0.75

**Q.** What about the Activity (Rattus norvegicus [5]) of the same molecule?
**A.** inactive

**Q.** What about the half-life [6] of the same molecule?
**A.** 48.6 min

**Q.** What about the Cmax [7] of the same molecule?
**A.** 720 nM

**Q.** And the Activity (Rattus norvegicus [8])?
**A.** inactive

**Q.** What about the Activity [9] of the same molecule?
**A.** Non-Toxic

**Q.** And the Activity (Rattus norvegicus [10])?
**A.** inactive

**Q.** And the concentration at 1 h [11]?
**A.** 1540 nM

**Q.** And the inhibition [12]?
**A.** < 20%

**Q.** And the Activity [13]?
**A.** Non-Toxic

**Q.** And the Activity [14]?
**A.** Non-Toxic

**Q.** And the Stability [15]?
**A.** Stable

**Q.** And the pIC50 [16]?
**A.** < 4.00

**Q.** And the pIC50 [17]?
**A.** < 4.00

**Q.** And the Stability [18]?
**A.** Stable

**Q.** What about the Activity [19] of the same molecule?
**A.** inactive

**Q.** What about the inhibition [20] of the same molecule?
**A.** 43%

**Q.** And the pIC50 [21]?
**A.** 7.00

**Q.** What about the solubility [22] of the same molecule?
**A.** > 300 µM

**Q.** And the Activity (Rattus norvegicus [23])?
**A.** Dose-Dependent Effect

**Q.** What about the ED50 (Rattus norvegicus [23]) of the same molecule?
**A.** 23.2 mg/kg

**Q.** What about the pIC50 [24] of the same molecule?
**A.** < 4.00

**Q.** What about the Activity [25] of the same molecule?
**A.** inactive

**Q.** And the Activity [26]?
**A.** Non-Toxic

**Q.** And the “Drug uptake(free)” value [27]?
**A.** 0.47 µmol/L
